Source: patent US12448383B2, “Compounds and methods for treatment of viral infections” (priority 2022, dated 2025)

Tests used:
[1] = CC50 MT4 cytotoxicity (Cell-Titer Glo); assay type: cell-based; details: human
Outline: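 CC50 values are the concentrations cutting viability by 50%, fitted by non-linear regression against untreated (100%) and 2 μM puromycin (0%) controls. Cell-Titer Glo luminescence measured after 4-5 days at 37° C exposure of uninfected MT-4 and HEp-2 cells to 3-fold dilutions spanning 15 nM to 100,000 nM.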

Plasma stability = assay type: in vitro ADME; design: unit not given here; details: 37° C., 2 μM substrate
Outline: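 LC-MS (Q-Exactive, 5 ppm tolerance, 0.1% formic acid water/acetonitrile gradient) quantified compound in quenched aliquots. Aliquots were taken at 0.05, 0.5, 1, 2, 3 and 4 hr and quenched with internal-standard solution, and supernatants were diluted with water after centrifugation.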

[2] = system: Respiratory syncytial virus recombinant with luciferase (RSV-Luc5) in Normal Human Bronchial Epithelial (NHBE) cells; experiment: microbe, parasite or virus in culture; assay type: cell-based; details: read-out: EC50 RSVFluc-NHBE 384 V2
[3] = system: Caco-2 cells (clone C2BBe1); experiment: CACO-2 permeability; assay type: in vitro ADME; design: unit not given here; details: for DM Caco2 A to B: apical to basolateral, donor pH 6.5, receiver pH 7.4; for DM Caco2 B to A: basolateral to apical
Outline: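 A-to-B and B-to-A flux measured by LC-MS/MS from receiver samples taken at 1 and 2 h, with donor sampled at 0 and 2 h and recovery checked. Buffers: pH 6.5 HBSS with 200 μM BNPP on the donor side, pH 7.4 with BSA on the receiver side. Monolayers were 21-day cultures, TEER-verified, in duplicate wells.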

[4] = system: SARS Coronavirus 2 recombinant with NanoLuc (SARS-CoV2-NLuc) in A549-hACE2 cells; experiment: microbe, parasite or virus in culture; assay type: cell-based; details: A549; read-out: EC50 SARS CoV2 NanoLuc A549 384
[5] = GI S9 stability - no PMSF; assay type: in vitro ADME; design: GIS9-HUMAN-NoPMSF T1/2: unit: min; details: human intestinal S9, PMSF-free; for half-life at 2 µM: pH 7.4, read-out: GIS9-HUMAN-NoPMSF T1/2
Outline: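 Stability was assessed by Q-Exactive LC-MS peak area ratios against internal standard, tracking loss of parent and appearance of nucleoside metabolite Reference Compound A. Incubations used 2 μM compound in 1 mg/mL intestinal S9 without PMSF (PBS, pH 7.4), with six samples taken over 120 min.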

[6] = system: Respiratory syncytial virus recombinant with luciferase (RSV-Luc5) in HEp-2 cells; experiment: microbe, parasite or virus in culture; assay type: cell-based; details: human respiratory syncytial virus, HEp-2, read-out: EC50 RSVFluc-Hep2 384 V2

N#C[C@@]1(c2ccc3c(N)ncnn23)O[C@H](COC(=O)OCCCCCC(=O)O)[C@@H](O)[C@H]1O [Compound 140, 6-(((((2R,3S,4R,5R)-5-(4-aminopyrrolo[2,1-f][1,2,4]triazin-7-yl)-5-cyano-3,4-dihydroxytetrahydrofuran-2-yl)methoxy)carbonyl)oxy)hexanoic acid]
CC50 [1]: > 50 µM
logD (physchem): < 0.3
STA Human Plasma 37 (Plasma stability): 1322.1
EC50 [2]: > 50 µM
DM Caco2 A to B [3]: 0.04
DM Caco2 B to A [3]: 0.12
EC50 [4]: > 50 µM
half-life at 2 µM [5]: 13.1 h

N#C[C@@]1(c2ccc3c(N)ncnn23)O[C@H](COC(=O)OCCCC(=O)O)[C@@H](O)[C@H]1O [Compound 141, 4-(((((2R,3S,4R,5R)-5-(4-aminopyrrolo[2,1-f][1,2,4]triazin-7-yl)-5-cyano-3,4-dihydroxytetrahydrofuran-2-yl)methoxy)carbonyl)oxy)butanoic acid]
CC50 [1]: > 50 µM
logD (physchem): < 0.3
STA Human Plasma 37 (Plasma stability): 902.37
EC50 [2]: > 50 µM
DM Caco2 A to B [3]: 0.05
DM Caco2 B to A [3]: 0.08
EC50 [4]: > 50 µM
GIS9-HUMAN-NoPMSF T1/2 [5]: 789

N#C[C@@]1(c2ccc3c(N)ncnn23)O[C@H](COC(=O)OCCCCC(=O)O)[C@@H](O)[C@H]1O [Compound 142, 5-(((((2R,3S,4R,5R)-5-(4-aminopyrrolo[2,1-f][1,2,4]triazin-7-yl)-5-cyano-3,4-dihydroxytetrahydrofuran-2-yl)methoxy)carbonyl)oxy)pentanoic acid]
CC50 [1]: > 50 µM
logD (physchem): < 0.3
STA Human Plasma 37 (Plasma stability): 1584
EC50 [2]: > 50 µM
DM Caco2 A to B [3]: 0.02
DM Caco2 B to A [3]: 0.07
EC50 [4]: > 50 µM
GIS9-HUMAN-NoPMSF T1/2 [5]: 789

CN(C)[C@@H](COC(=O)OC[C@H]1O[C@@](C#N)(c2ccc3c(N)ncnn23)[C@H](O)[C@@H]1O)C(=O)OCC1CCCC1 [Compound 152, cyclopentylmethyl O-((((2R,3S,4R,5R)-5-(4-aminopyrrolo[2,1-f][1,2,4]triazin-7-yl)-5-cyano-3,4-dihydroxytetrahydrofuran-2-yl)methoxy)carbonyl)-N,N-dimethyl-L-serinate]
CC50 [1]: > 50 µM
logD (physchem): 2.2
EC50 [2]: 3.63 µM
EC50 [4]: 1.28 µM

C[C@@H](OC(=O)OC[C@H]1O[C@@](C#N)(c2ccc3c(N)ncnn23)[C@H](O)[C@@H]1O)[C@@H](C(=O)OCC1CCCC1)N(C)C [Compound 148, (2S,3R)-cyclopentylmethyl 3-(((((2R,3S,4R,5R)-5-(4-aminopyrrolo[2,1-f][1,2,4]triazin-7-yl)-5-cyano-3,4-dihydroxytetrahydrofuran-2yl)methoxy)carbonyl)oxy)-2-(dimethylamino)butanoate]
CC50 [1]: > 50 µM
logD (physchem): 2.7
EC50 [2]: 2.1 µM
EC50 [4]: 2.05 µM

COC1O[C@H]2[C@@H](O1)[C@](C#N)(c1ccc3c(N)ncnn13)O[C@@H]2COC(=O)OC(C)C (stereo partly drawn) [Compound 107, ((3aR,4R,6R,6aR)-6-(4-aminopyrrolo[2,1-f][1,2,4]triazin-7-yl)-6-cyano-2-methoxytetrahydrofuro[3,4-d][1,3]dioxol-4-yl)methyl isopropyl carbonate]
CC50 [1]: > 50 µM
logD (physchem): 2.5
EC50 [2]: > 50 µM
EC50 [6]: > 50 µM
EC50 [4]: > 50 µM

C[C@@H](OC(=O)OC[C@H]1O[C@@](C#N)(c2ccc3c(N)ncnn23)[C@H](O)[C@@H]1O)[C@@H](C(=O)OC1CCCC1)N(C)C [Compound 149, cyclopentyl O-((((2R,3S,4R,5R)-5-(4-aminopyrrolo[2,1-f][1,2,4]triazin-7-yl)-5-cyano-3,4-dihydroxytetrahydrofuran-2-yl)methoxy)carbonyl)-N,N-dimethyl-L-threoninate]
CC50 [1]: > 50 µM
logD (physchem): 2.2
EC50 [2]: 2.55 µM
EC50 [4]: 2.42 µM

COC(=O)Nc1ncnn2c([C@]3(C#N)O[C@H](COC(=O)OCC(C)(C)C)[C@@H](OC(=O)OC)[C@H]3OC(=O)OC)ccc12 [Compound 103, methyl (7-((2R,3R,4R,5R)-2-cyano-3,4-bis((methoxycarbonyl)oxy)-5-((((neopentyloxy)carbonyl)oxy)methyl)tetrahydrofuran-2-yl)pyrrolo[2,1-f][1,2,4]triazin-4-yl)carbamate]
CC50 [1]: > 50 µM
logD (physchem): 3.2
EC50 [2]: 17.7 µM
EC50 [6]: 20.7 µM
EC50 [4]: > 50 µM

CC(C)(C)OP(=O)(OCOC(=O)OC[C@H]1O[C@@](C#N)(c2ccc3c(N)ncnn23)[C@H](O)[C@@H]1O)OC(C)(C)C [Compound 110, ((2R,3S,4R,5R)-5-(4-aminopyrrolo[2,1-f][1,2,4]triazin-7-yl)-5-cyano-3,4-dihydroxytetrahydrofuran-2-yl)methyl (((di-tert-butoxyphosphoryl)oxy)methyl) carbonate]
CC50 [1]: > 50 µM
logD (physchem): 1.7
EC50 [2]: 20.4 µM
EC50 [6]: 10.8 µM

CC(C)OC(=O)[C@H](CCOC(=O)OC[C@H]1O[C@@](C#N)(c2ccc3c(N)ncnn23)[C@H](O)[C@@H]1O)N(C)C [Compound 146, isopropyl (2S)-4-[[(2R,3S,4R,5R)-5-(4-aminopyrrolo[2,1-f][1,2,4]triazin-7-yl)-5-cyano-3,4-dihydroxy-tetrahydrofuran-2-yl]methoxycarbonyloxy]-2-(dimethylamino)butanoate]
CC50 [1]: > 50 µM
logD (physchem): 1.5
STA Human Plasma 37 (Plasma stability): 497.93
EC50 [2]: 8.25 µM
DM Caco2 A to B [3]: 0.06
DM Caco2 B to A [3]: 7.15
EC50 [4]: 7.68 µM
half-life at 2 µM [5]: 2.9 h

N#C[C@@]1(c2ccc3c(N)ncnn23)O[C@H](COC(=O)OCOP(=O)(O)O)[C@@H](O)[C@H]1O [Compound 40, ((2R,3S,4R,5R)-5-(4-aminopyrrolo[2,1-f][1,2,4]triazin-7-yl)-5-cyano-3,4-dihydroaytetrahydrofuran-2-yl)methyl ((phosphonooxy)methyl) carbonate]
CC50 [1]: > 50 µM
logD (physchem): < 0.3
EC50 [2]: 3.69 µM
EC50 [6]: 3.55 µM

CN(C)[C@@H](COC(=O)OC[C@H]1O[C@@](C#N)(c2ccc3c(N)ncnn23)[C@H](O)[C@@H]1O)C(=O)OC1CCCC1 [Compound 153, cyclopentyl O-((((2R,3S,4R,5R)-5-(4-aminopyrrolo[2,1-f][1,2,4]triazin-7-yl)-5-cyano-3,4-dihydroxytetrahydrofuran-2-yl)methoxy)carbonyl)-N,N-dimethyl-L-serinate]
CC50 [1]: > 50 µM
logD (physchem): 1.7
EC50 [2]: 3.24 µM
EC50 [4]: 2.67 µM

N#C[C@@]1(c2ccc3c(N)ncnn23)O[C@H](COC(=O)OCCCCCCC(=O)O)[C@@H](O)[C@H]1O [Compound 143, 7-(((((2R,3S,4R,5R)-5-(4-aminopyrrolo[2,1-f][1,2,4]triazin-7-yl)-5-cyano-3,4-dihydroxytetrahydrofuran-2-yl)methoxy)carbonyl)oxy)heptanoic acid]
CC50 [1]: > 50 µM
logD (physchem): < 0.3
STA Human Plasma 37 (Plasma stability): 800.58
EC50 [2]: > 50 µM
EC50 [4]: 35.4 µM
GIS9-HUMAN-NoPMSF T1/2 [5]: 789

N#C[C@@]1(c2ccc3c(N)ncnn23)O[C@H](COC(=O)OC23CC(C(F)(F)F)(C2)C3)[C@@H](O)[C@H]1O [Compound 139, [(2R,3S,4R,5R)-5-(4-aminopyrrolo[2,1-f][1,2,4]triazin-7-yl)-5-cyano-3,4-dihydroxy-tetrahydrofuran-2-yl]methyl [3-(trifluoromethyl)-1-bicyclo[1.1.1]pentanyl]carbonate]
CC50 [1]: > 50 µM
logD (physchem): 2.2
STA Human Plasma 37 (Plasma stability): 150.07
EC50 [2]: 1.64 µM
DM Caco2 A to B [3]: 0.99
DM Caco2 B to A [3]: 12.98
half-life at 2 µM [5]: 0.0228 h

CCCCCCCCCCCCCCCCCCOC(=O)OC[C@H]1O[C@@](C#N)(c2ccc3c(N)ncnn23)[C@H](O)[C@@H]1O [Compound 126, ((2R,3S,4R,5R)-5-(4-aminopyrrolo[2,1-f][1,2,4]triazin-7-yl)-5-cyano-3,4-dihydroxytetrahydrofuran-2-yl)methyl octadecyl carbonate]
CC50 [1]: 27.7 µM
logD (physchem): > 5.7
STA Human Plasma 37 (Plasma stability): 79.1
EC50 [2]: 0.517 µM
DM Caco2 A to B [3]: 0.01
DM Caco2 B to A [3]: 0.03
EC50 [4]: 1.61 µM
half-life at 2 µM [5]: 1.63 h
